Like-named read-outs stand apart in the source and are kept apart here.

The test system of the test is HIV-1 (H9/IIIB strain). Description: Multiple round HIV-1 infection assay in MT4-GFP cells (wild type cell assay, Viking). Type of test: cell-based. Conditions: MT4-GFP cells infected with HIV-1 H9/IIIB, inhibition of reproductive ratio R0, ~48 h and ~72 h post-infection. The method, then: The antiviral activity of the Examples herein was assessed in an assay that measures the rate of replication of HIV in cell culture, and performed according to the following procedure. HIV-1 replication was monitored using MT4-gag-GFP clone D3 (hereafter designated MT4-GFP), which are MT-4 cells modified to harbor a GFP reporter gene, the expression of which is dependent on the HIV-1 expressed proteins tat and rev. Productive infection of an MT4-GFP cell with HIV-1 results in GFP expression approximately 24 h post-infection. MT4-GFP cells were maintained at 37° C./5% CO2/90% relative humidity in RPMI 1640 supplemented with 10% fetal bovine serum, 100 U/ml penicillin/streptomycin, and 400 μg/ml G418 to maintain the reporter gene. For infections, MT4-GFP cells were placed in the same medium lacking G418 and infected overnight with HIV-1 (H9/IIIB strain) virus at an approximate multiplicity of infection of 0.01 in the same incubation conditions. Cells were then washed and re-suspended in either RPMI 1640 at 2×10^5 cells/mL (0% NHS condition) or 100% normal human serum (NHS) at 2×10^5 cells/mL (100% NHS condition). Compound plates were prepared by dispensing compounds dissolved in DMSO into wells of 384 well poly-D-lysine-coated plates (0.2 μl/well) using an ECHO acoustic dispenser. Each compound was tested in a 10-point serial 3-fold dilution (typical final concentrations: 1050 nM-0.05 nM for 0% NHS condition or 42 μM-2.13 nM for 100% NHS condition). Controls included no inhibitor (DMSO only) and a combination of three antiviral agents (efavirenz, indinavir, an in-house integrase strand transfer inhibitor at final concentrations of 4 μM each). Cells were added ([…]) to compound plates and the infected cells were maintained at 37° C./5% CO2/90% relative humidity.
Infected cells were quantified at two time points, ˜48 h and ˜72 h post-infection, by counting the number of green cells in each well using an Acumen eX3 scanner. The increase in the number of green cells over ˜24 h period gives the reproductive ratio, R0, which is typically 5-15 and has been shown experimentally to be in logarithmic phase (data not shown). Inhibition of R0 is calculated for each well, and IC50s determined by non-linear 4-parameter curve fitting.

[1] abbreviates: Human immunodeficiency virus 1, IIIB, 0% NHS condition (RPMI 1640), read-out: WILD TYPE CELL ASSAY Viking IP (0% NHS).
Where [2] appears, read: 0% NHS condition (RPMI 1640), read-out: WILD TYPE CELL ASSAY Viking IP (0% NHS).
Setting [3] is: 100% normal human serum condition, read-out: WILD TYPE CELL ASSAY Viking IP (100% NHS).

Turning to `CN1CC2(C)CC(O)c3c(C(=O)NCc4cccc(Cl)c4F)c(=O)c(O)c(n32)C1=O` (stereo not drawn) [Compound 35], the IC50 reads like this: under setting [1], 0.0021 µM; (Human immunodeficiency virus 1, IIIB, 100% normal human serum condition, read-out: WILD TYPE CELL ASSAY Viking IP (100% NHS)) 0.116 µM.
Take `CCN1CC2(COC)CC(O)c3c(C(=O)NCc4c(F)cc(F)cc4F)c(=O)c(O)c(n32)C1=O` (single isomer, unassigned) [Compound 62]: the IC50 was 0.0024 µM under setting [2] and 0.0605 µM under setting [3].
Taken in the same sequence, the figures for `CN1CC2(C)CC(O)c3c(C(=O)NCc4c(F)ccc(Cl)c4F)c(=O)c(O)c(n32)C1=O` (stereo not drawn) [Compound 32] were 0.0021 µM and 0.0557 µM.
For the molecule `CCC12CC(O)c3c(C(=O)NCc4c(F)ccc(F)c4F)c(=O)c(O)c(n31)C(=O)N(C)C2` (stereo not drawn) [Compound 52], the IC50 under setting [2] came to 0.0027 µM and the IC50 under setting [3] worked out at 0.15 µM.
Consider `CCC12CC(O)c3c(C(=O)NCc4ccc(F)cc4F)c(=O)c(O)c(n31)C(=O)N(C)C2` (single isomer, unassigned) [Compound 38], for which the IC50 worked out at 0.0012 µM under setting [2] and 0.0325 µM under setting [3].
Regarding `CCN1CC2(COC)CC(O)c3c(C(=O)NCc4ccc(F)cc4F)c(=O)c(O)c(n32)C1=O` (single isomer, unassigned) [Compound 57], the IC50 worked out at 0.0031 µM under setting [2] and 9.97 µM under setting [3].
As for `CN1CC2(C)CC(O)c3c(C(=O)NCc4cccc(Cl)c4F)c(=O)c(O)c(n32)C1=O` (single isomer, unassigned) [Compound 33], the IC50 under setting [1] is 0.003 µM and the IC50 under setting [3] amounted to 1.21 µM.
On to `CCN1CC2(COC)CC(O)c3c(C(=O)NCc4c(F)cc(F)cc4F)c(=O)c(O)c(n32)C1=O` (stereo not drawn) [Compound 64], for which the IC50 runs as follows: under setting [2], 0.0029 µM; under setting [3], 2.74 µM.
On the same counts, the results for `CCN1CC2(COC)CC(O)c3c(C(=O)NCc4ccc(F)cc4F)c(=O)c(O)c(n32)C1=O` (single isomer, unassigned) [Compound 59] are 0.0032 µM and 0.106 µM.
Taken in the same sequence, the figures for `CCC12CC(O)c3c(C(=O)NCc4c(F)ccc(Cl)c4F)c(=O)c(O)c(n31)C(=O)N(C)C2` (stereo not drawn) [Compound 56] were 0.0034 µM and 0.891 µM.
Consider `CC1N(C)C(=O)c2c(O)c(=O)c(C(=O)NCc3ccc(F)cc3F)c3n2C1(C)CC3O` (single isomer, unassigned) [Compound 72], for which the IC50 runs as follows: under setting [2], 0.0013 µM; under setting [3], 0.0158 µM.
In the case of `CCN1CC2(CCOC(F)F)CC(O)c3c(C(=O)NCc4ccc(F)cc4F)c(=O)c(O)c(n32)C1=O` (single isomer, unassigned) [Compound 2], the IC50 was 0.0063 µM under setting [2] and 0.0949 µM under setting [3].
On the same counts, the results for `CN1CC2(C)CC(O)c3c(C(=O)NCc4cccc(Cl)c4F)c(=O)c(O)c(n32)C1=O` (stereo not drawn) [Compound 36] are 0.0021 µM and 0.0599 µM.
Taken in the same sequence, the figures for `CCC12CC(O)c3c(C(=O)NCc4cccc(Cl)c4F)c(=O)c(O)c(n31)C(=O)N(C)C2` (single isomer, unassigned) [Compound 44] were 0.0037 µM and 0.259 µM.
Turning to `CN1CC2(C)CC(O)c3c(C(=O)NCc4c(F)ccc(Cl)c4F)c(=O)c(O)c(n32)C1=O` (stereo not drawn) [Compound 31], the IC50 under setting [1] is 0.0017 µM and the IC50 under setting [3] was 0.268 µM.
Taken in the same sequence, the figures for `CCC12CC(O)c3c(C(=O)NCc4c(F)ccc(F)c4F)c(=O)c(O)c(n31)C(=O)N(C)C2` (stereo not drawn) [Compound 51] were 0.0017 µM and 0.0322 µM.
Consider `CC1N(C)C(=O)c2c(O)c(=O)c(C(=O)NCc3ccc(F)cc3F)c3n2C1(C)CC3O` (single isomer, unassigned) [Compound 70], for which the IC50 reads like this: under setting [2], 0.0012 µM; under setting [3], 0.0263 µM.
On the same counts, the results for `CC1N(C)C(=O)c2c(O)c(=O)c(C(=O)NCc3ccc(F)cc3F)c3n2C1(C)CC3O` (single isomer, unassigned) [Compound 66] are 0.0014 µM and 0.0323 µM.
On the same counts, the results for `CC1N(C)C(=O)c2c(O)c(=O)c(C(=O)NCc3ccc(F)cc3F)c3n2C1(C)CC3O` (single isomer, unassigned) [Compound 68] are 0.0024 µM and 0.0455 µM.
On the same counts, the results for `CC1N(C)C(=O)c2c(O)c(=O)c(C(=O)NCc3ccc(F)cc3F)c3n2C1(C)CC3O` (single isomer, unassigned) [Compound 71] are 0.0031 µM and 0.0911 µM.
With `CC1N(C)C(=O)c2c(O)c(=O)c(C(=O)NCc3ccc(F)cc3F)c3n2C1(C)CC3O` (single isomer, unassigned) [Compound 69], the IC50 reads like this: under setting [2], 0.0019 µM; under setting [3], 0.0775 µM.
Taken in the same sequence, the figures for `CN1CC2(C)CC(O)c3c(C(=O)NCc4c(F)cc(F)cc4F)c(=O)c(O)c(n32)C1=O` (stereo not drawn) [Compound 27] were 0.0021 µM and 0.029 µM.
Turning to `CCC12CC(O)c3c(C(=O)NCc4c(F)cc(F)cc4F)c(=O)c(O)c(n31)C(=O)N(C)C2` (single isomer, unassigned) [Compound 46], the IC50 under setting [2] turned out to be 0.0016 µM and the IC50 under setting [3] was 0.0368 µM.
On the same counts, the results for `CC1C(O)c2c(C(=O)NCc3ccc(F)cc3F)c(=O)c(O)c3n2C1(C)CN(C)C3=O` (single isomer, unassigned) [Compound 78] are 0.0032 µM and 0.383 µM.
Taken in the same sequence, the figures for `CCC12CC(O)c3c(C(=O)NCc4ccc(F)cc4F)c(=O)c(O)c(n31)C(=O)N(C)C2` (single isomer, unassigned) [Compound 40] were 0.0019 µM and 0.0391 µM.
As for `CCC12CC(O)c3c(C(=O)NCc4c(F)cc(F)cc4F)c(=O)c(O)c(n31)C(=O)N(C)C2` (single isomer, unassigned) [Compound 45], the IC50 under setting [1] is 0.0011 µM and the IC50 under setting [3] was found to be 0.0179 µM.
Taken in the same sequence, the figures for `CCC12CC(O)c3c(C(=O)NCc4c(F)ccc(Cl)c4F)c(=O)c(O)c(n31)C(=O)N(C)C2` (single isomer, unassigned) [Compound 53] were 0.0026 µM and 4.37 µM.
For `CCC12CC(O)c3c(C(=O)NCc4cccc(Cl)c4F)c(=O)c(O)c(n31)C(=O)N(C)C2` (single isomer, unassigned) [Compound 42], the IC50 under setting [2] is 0.0028 µM and the IC50 under setting [3] was found to be 0.0593 µM.
On the same counts, the results for `CC1C(O)c2c(C(=O)NCc3ccc(F)cc3F)c(=O)c(O)c3n2C1(C)CN(C)C3=O` (single isomer, unassigned) [Compound 76] are 0.0025 µM and 0.237 µM.
For `CCN1CC2(CCOC(F)F)CC(O)c3c(C(=O)NCc4ccc(F)cc4F)c(=O)c(O)c(n32)C1=O` (single isomer, unassigned) [Compound 1], the IC50 runs as follows: under setting [2], 0.0076 µM; under setting [3], 0.237 µM.
Taken in the same sequence, the figures for `CC1C(O)c2c(C(=O)NCc3ccc(F)cc3F)c(=O)c(O)c3n2C1(C)CN(C)C3=O` (single isomer, unassigned) [Compound 75] were 0.0025 µM and 0.172 µM.
As for `CN1CC2(C)CC(O)c3c(C(=O)NCc4c(F)ccc(Cl)c4F)c(=O)c(O)c(n32)C1=O` (single isomer, unassigned) [Compound 29], the IC50 under setting [1] came to 0.0019 µM and the IC50 under setting [3] came out at 3.13 µM.
As to `CC1C(O)c2c(C(=O)NCc3ccc(F)cc3F)c(=O)c(O)c3n2C1(C)CN(C)C3=O` (single isomer, unassigned) [Compound 73], the IC50 worked out at 0.0023 µM under setting [2] and 0.387 µM under setting [3].
On the same counts, the results for `CN1CC2(C)CC(O)c3c(C(=O)NCc4c(F)cc(F)cc4F)c(=O)c(O)c(n32)C1=O` (stereo not drawn) [Compound 28] are 0.001 µM and 0.129 µM.
Take `CCC12CC(O)c3c(C(=O)NCc4ccc(F)cc4F)c(=O)c(O)c(n31)C(=O)N(C)C2` (single isomer, unassigned) [Compound 37]: the IC50 is 0.0022 µM under setting [2] and 0.547 µM under setting [3].
Taken in the same sequence, the figures for `CCN1CC2(COC)CC(O)c3c(C(=O)NCc4ccc(F)cc4F)c(=O)c(O)c(n32)C1=O` (single isomer, unassigned) [Compound 60] were 0.0071 µM and 1.26 µM.

(Values after US20210115044A1, “TRICYCLIC HETEROCYCLE COMPOUNDS USEFUL AS HIV INTEGRASE INHIBITORS” (Merck Sharp & Dohme Corp., priority 2018, published 2021).)
